Tested on: sexual dysfunction in male patients taking selective serotonin reuptake inhibitors
Assay: Crossover home-use trial of sublingual apomorphine in male patients taking SSRIs (sexual function questionnaire)
Format: in vivo, human (male patients)
Conditions: male patients on SSRI's
Protocol: A crossover study of 1500 patients in a home-use trial of apomorphine on male patients was performed.
In the crossover study, a 2-4 week baseline period was used to evaluate subjects. After this time, during an initial four week treatment period, subjects received either a placebo or apomorphine, without knowing whether or not they had received the active medication. The dosage was either 2, 4, 5 or 6 mg. This initial treatment period was followed by a 24-96 hour washout period, in which no medication was taken. Subsequently, a second four week treatment period, subjects who previously had received apomorphine, were given a placebo, and subjects who previously had received the placebo were given apomorphine. Subject were to attempt coitus once each week after taking a single tablet of apomorphine sublingually. After each attempt, the subject and their partner completed a sexual function questionnaire which was later evaluated and used for final statistical analysis. In the analysis, the data for patients receiving 2, 4, 5 or 6 mg dosages was pooled.

## CN1CCc2cccc3c2[C@H]1Cc1ccc(O)c(O)c1-3 [apomorphine, (R)-5,6,6a,7-tetrahydro-6-methyl-4H-dibenzo-[de,g]quinoline-10,11-diol]
Apomorphine versus placebo
  patients on SSRI drugs able to have intercourse after apomorphine, relative to placebo: twice as many patients on SSRI drugs were able to have intercourse
Single sublingual tablet, pooled 2, 4, 5 or 6 mg dosages, four week treatment period, placebo 23.4%
  attempts successful: attempt resulted in intercourse: 47.6%
Single sublingual tablet, pooled 2, 4, 5 or 6 mg dosages, four week treatment period, placebo 26%
  attempts successful: erection firm enough for intercourse attained: 48%

From patent publication US20020086876A1, “Treatment of anti-depression drug-induced sexual dysfunction with apomorphine” (priority 2000, published 2002)
